Measurements published in ChEMBL document CHEMBL3994561 (Medchemcomm, 2016).
Activity calls are given as the source filed them. No cut-off for these calls is given here.

Tests used:
[1] = system: NALM-6; assay: Cytotoxicity against human NALM6 cells after 48 hrs by MTT assay; format: functional, cell-based; settings: NALM-6, 48 h
[2] = system: MCF7; assay: Cytotoxicity against human MCF7 cells after 48 hrs by MTT assay; format: functional, cell-based; settings: MCF7, 48 h
[3] = system: HL-60; assay: Cytotoxicity against human HL60 cells after 48 hrs by MTT assay; format: functional, cell-based; settings: HL-60, 48 h
[4] = system: HUVEC; assay: Cytotoxicity against human HUVEC cells after 48 hrs by MTT assay; format: cell-based
[5] = system: MCF-10A; assay: Cytotoxicity against human MCF10A cells after 48 hrs by MTT assay; format: cell-based
[6] = system: MCF7; assay: Cytotoxicity against human MCF7 cells after 24 hrs by MTT assay; format: functional, cell-based; settings: MCF7, 24 h
[7] = system: MCF7; assay: Cell cycle arrest in human MCF7 cells assessed as accumulation at sub G0/G1 phase at 12.76 +/- 0.46 uM after 24 hrs by propidium iodide staining-based flow cytometric analysis (reference value: 1.3%); format: functional
[8] = system: MCF7; assay: Cell cycle arrest in human MCF7 cells assessed as accumulation at G0/G1 phase at 12.76 +/- 0.46 uM after 24 hrs by propidium iodide staining-based flow cytometric analysis (reference value: 52.2%); format: functional
[9] = system: MCF7; assay: Induction of apoptosis in human MCF7 cells assessed as downregulation of Bcl-2 mRNA level at 12.76 +/- 0.46 uM by quantitative real-time PCR method; format: functional, cell-based
[10] = Selectivity index, ratio of IC50 for human MCF10A cells to IC50 for human NALM6 cells; format: functional
[11] = system: MCF7; assay: Cell cycle arrest in human MCF7 cells assessed as accumulation at S phase at 12.76 +/- 0.46 uM after 24 hrs by propidium iodide staining-based flow cytometric analysis (reference value: 25.9%); format: functional
[12] = Selectivity index, ratio of IC50 for human MCF10A cells to IC50 for human MCF7 cells; format: functional
[13] = system: MCF7; assay: Induction of apoptosis in human MCF7 cells assessed as upregulation of Bax mRNA level at 12.76 +/- 0.46 uM by quantitative real-time PCR method; format: functional, cell-based
[14] = system: MCF7; assay: Induction of apoptosis in human MCF7 cells assessed as late apoptotic cells at 12.76 +/- 0.46 uM after 24 hrs by annexin V-FITC/propidium iodide staining-based flow cytometric method (reference value: 10.1 +/- 0.2%); format: functional
[15] = system: MCF7; assay: Disruption of mitochondrial membrane potential in human MCF7 cells assessed as collapse of the mitochondrial membrane potential at 12.76 +/- 0.46 uM after 24 hrs by JC10 staining-based flow cytometric method (reference value: 23.9%); format: functional
[16] = system: MCF7; assay: Induction of apoptosis in human MCF7 cells assessed as upregulation of caspase-3 mRNA level at 12.76 +/- 0.46 uM by quantitative real-time PCR method; format: functional, cell-based
[17] = Selectivity index, ratio of IC50 for human MCF7 cells to IC50 for human MCF10A cells; format: functional
[18] = system: MCF7; assay: Cell cycle arrest in human MCF7 cells assessed as accumulation at G2/M phase at 12.76 +/- 0.46 uM after 24 hrs by propidium iodide staining-based flow cytometric analysis (reference value: 20.3%); format: functional
[19] = system: MCF7; assay: Induction of apoptosis in human MCF7 cells assessed as viable cells at 12.76 +/- 0.46 uM after 24 hrs by annexin V-FITC/propidium iodide staining-based flow cytometric method (reference value: 83.4%); format: functional
[20] = system: MCF7; assay: Induction of apoptosis in human MCF7 cells assessed as necrotic cells at 12.76 +/- 0.46 uM after 24 hrs by annexin V-FITC/propidium iodide staining-based flow cytometric method (reference value: 4.1%); format: functional
[21] = system: MCF7; assay: Induction of apoptosis in human MCF7 cells assessed as early apoptotic cells at 12.76 +/- 0.46 uM after 24 hrs by annexin V-FITC/propidium iodide staining-based flow cytometric method (reference value: 1.7%); format: functional
[22] = system: MCF7; assay: Disruption of mitochondrial membrane potential in human MCF7 cells assessed as intact mitochondrial membrane at 12.76 +/- 0.46 uM after 24 hrs by JC10 staining-based flow cytometric method (reference value: 76.1%); format: functional

| Structure (SMILES) | IC50 [1] | IC50 [2] | IC50 [3] | other results |
| --- | --- | --- | --- | --- |
| C=C1C(=O)Oc2ccccc2[C@H]1[C@@H]1CCCC1=O | 488 µM | 14.7 µM | 578 µM | – |
| C=C1C(=O)Oc2ccccc2[C@H]1[C@@H]1CCCCC1=O | 85.6 µM | 8 µM | 629 µM | – |
| C=C1C(=O)Oc2c(OC)cccc2C1CC(C)=O (configuration not stated) | 73.2 µM | 10.5 µM | 90.9 µM | – |
| C=C1C(=O)Oc2ccccc2[C@H]1[C@@H]1Cc2ccccc2C1=O | 705 µM | 17 µM | 247 µM | – |
| C=C1C(=O)Oc2ccc(Cl)cc2C1CC(C)=O (configuration not stated) | 427 µM | 16.3 µM | 289 µM | – |
| C=C1C(=O)Oc2ccccc2C1CC(C)=O (configuration not stated) | 94.4 µM | 11.5 µM | 84.1 µM | – |
| C=C1C(=O)Oc2c(OC)cccc2[C@H]1[C@@H]1CCc2cc(OC)ccc2C1=O (relative stereo) | 0.87 µM | 17.5 µM | 3.61 µM | IC50 [4]: 4.87 µM; IC50 [5]: 13.6 µM |
| C=C1C(=O)Oc2ccc(Cl)cc2[C@H]1[C@@H]1Cc2ccccc2C1=O (relative stereo) | 6.56 µM | 15.2 µM | 7.48 µM | – |
| C=C1C(=O)Oc2c(OC)cccc2[C@H]1[C@@H]1CCCCC1=O (relative stereo) | 4.14 µM | 8.75 µM | 6.06 µM | IC50 [6]: 12.8 µM; Activity [7]: 17.9%; Activity [8]: 36%; Activity [9]: Active; Ratio IC50 [10]: 5; Activity [11]: 29.7%; Ratio IC50 [12]: 2; Activity [13]: Active; Activity [14]: 28.7%; Activity [15]: 52.5%; Activity [16]: Active; IC50 [4]: 4.7 µM; Ratio IC50 [17]: 5; IC50 [5]: 16.4 µM; Activity [18]: 16.5%; Activity [19]: 64%; Activity [20]: 5%; Activity [21]: 2.2%; Activity [22]: 47.5% |
| C=C1C(=O)Oc2ccc(Cl)cc2[C@H]1[C@@H]1CCc2cc(OC)ccc2C1=O (relative stereo) | 1.59 µM | 77.5 µM | 5.67 µM | – |
| C=C1C(=O)Oc2ccc(Cl)cc2[C@H]1[C@@H]1CCCC1=O (relative stereo) | > 1000 µM | 23 µM | 514 µM | – |
| C=C1C(=O)Oc2c(OC)cccc2[C@H]1[C@@H]1CCCC1=O (relative stereo) | 784 µM | 15 µM | 711 µM | – |
| C=C1C(=O)Oc2ccccc2[C@H]1[C@@H]1Cc2cc(OC)ccc2C1=O (relative stereo) | 0.65 µM | 77.6 µM | 5.48 µM | – |
| C=C1C(=O)Oc2ccccc2[C@H]1[C@@H]1CCc2cc(OC)ccc2C1=O (relative stereo) | 0.51 µM | 76.5 µM | 5.29 µM | – |
| C=C1C(=O)Oc2c(OC)cccc2[C@H]1[C@@H]1Cc2ccccc2C1=O (relative stereo) | 4.66 µM | 8.57 µM | 5.56 µM | – |
| C=C1C(=O)Oc2ccccc2[C@H]1[C@@H]1COCCC1=O (relative stereo) | 13.6 µM | 26.3 µM | 42.7 µM | – |
| C=C1C(=O)Oc2ccc(Cl)cc2[C@H]1[C@@H]1CCCCC1=O (relative stereo) | 94.6 µM | 3.45 µM | 84.9 µM | – |
